Here are results for nine molecules from ChEMBL document CHEMBL1124038, “Dehydro keto methylene and keto methylene analogues of substance P. Synthesis and biological activity” (J Med Chem, 1988).

Numbered stars: 1 amine (or outer) side, 2 acyl side, 3 side chain; on linkers, the order of the positions; unused ones are H or OH. Square brackets hold non-standard residues; d marks the D form. Peptide text beside a SMILES is read from it. X1 = CC(C)C[C@H](CC(=O)CN[*:1])C(=O)[*:2]; pGlu = O=C1CC[C@@H](C(=O)O)N1

The species named for this assay is Rattus norvegicus. As to the kind of experiment: Inhibition of the degradation of [125IBH]-SP6-11 in rat hypothalamus preparations. In kind it is functional.
For orientation: IC50 means the concentration that gives 50% inhibition. `CCOC(=O)/C(=C\c1ccccc1)CC(=O)[C@H](Cc1ccccc1)NC(=O)c1ccccc1` displayed an IC50 greater than 200 µM.

`O=C1CC[C@H](C(=O)N[C@@H](Cc2ccccc2)C(=O)C/C(=C/c2ccccc2)C(=O)O)N1` displayed an IC50 greater than 200 µM.

In turn, `CCOC(=O)/C(=C\c1ccccc1)CC(=O)[C@H](Cc1ccccc1)NC(=O)[C@H]1CCC(=O)N1` had an IC50 greater than 200 µM.

Molecule `COC(=O)CCC(=O)[C@H](Cc1ccccc1)NC(=O)[C@H](Cc1ccccc1)NC(=O)[C@H]1CCC(=O)N1` yielded an IC50 greater than 200 µM.

The molecule `CSCC[C@H](NC(=O)[C@H](CC(C)C)NC(=O)CNC(=O)/C(=C\c1ccccc1)CC(=O)[C@H](Cc1ccccc1)NC(=O)[C@H]1CCC(=O)N1)C(N)=O` had an IC50 of 1.8 µM.

Take `CSCC[C@H](NC(=O)[C@H](CC(C)C)NC(=O)CNC(=O)[C@@H](CC(=O)[C@H](Cc1ccccc1)NC(=O)[C@H]1CCC(=O)N1)Cc1ccccc1)C(N)=O`: inhibition was half-maximal at 30 µM (IC50).

Molecule `COC(=O)CCC(=O)[C@@H](N)Cc1ccccc1` came in with an IC50 greater than 200 µM.

Molecule `CCOC(=O)/C(=C\c1ccccc1)CC(=O)[C@@H](N)Cc1ccccc1` had an IC50 greater than 200 µM.

Molecule `CSCC[C@H](NC(=O)[C@@H](CC(=O)CNC(=O)[C@H](Cc1ccccc1)NC(=O)[C@H](Cc1ccccc1)NC(=O)[C@@H]1CCC(=O)N1)CC(C)C)C(N)=O` ([pGlu]FF[X1]M-NH2) came in with an IC50 of 50 µM.
